Measurements from paper PMC5218480 (PLoS ONE, 2017).

System: MV-4-11 cells
Experiment: Gene expression microarray analysis (Affymetrix PrimeView) and GSEA
Assay type: cell-based, human
Design: RFU PODN (11730768_x_at) / Fold change /veh PODN (11730768_x_at) / RFU LINC00158 (11744669_a_at) / Fold change /veh LINC00158 (11744669_a_at) / RFU DUSP10 (11751237_a_at) / Fold change /veh DUSP10 (11751237_a_at) / RFU ID3 (11757404_x_at) / Fold change /veh ID3 (11757404_x_at) / RFU PLEKHG5 (11737974_s_at) / Fold change /veh PLEKHG5 (11737974_s_at) / RFU LRRC4B (11730491_at) / Fold change /veh LRRC4B (11730491_at) / RFU GIMAP4 (11747438_a_at) / Fold change /veh GIMAP4 (11747438_a_at) / RFU KRT8 (11758183_x_at) / Fold change /veh KRT8 (11758183_x_at) / RFU CNN1 (11734310_a_at) / Fold change /veh CNN1 (11734310_a_at) / RFU VPS37D (11726825_at) / Fold change /veh VPS37D (11726825_at) / RFU C10orf10 (11716522_x_at) / Fold change /veh C10orf10 (11716522_x_at) / RFU KIR2DL2 /// KIR2DL4 /// KIR2DL5A /// KIR2DL5B /// KIR2DS1 /// KIR2DS2 /// KIR2DS3 /// KIR2DS4 /// KIR3DL3 /// KIR3DL3 /// KIR3DS1 (11738374_at) / Fold change /veh KIR2DL2 /// KIR2DL4 /// KIR2DL5A /// KIR2DL5B /// KIR2DS1 /// KIR2DS2 /// KIR2DS3 /// KIR2DS4 /// KIR3DL3 /// KIR3DL3 /// KIR3DS1 (11738374_at) / RFU C1QL1 (11718748_at) / Fold change /veh C1QL1 (11718748_at) / RFU TMPRSS4 (11747572_a_at) / Fold change /veh TMPRSS4 (11747572_a_at) / RFU HAMP (11756126_x_at) / Fold change /veh HAMP (11756126_x_at) / RFU RNFT2 (11725882_a_at) / Fold change /veh RNFT2 (11725882_a_at) / RFU NR4A2 (11747474_a_at) / Fold change /veh NR4A2 (11747474_a_at) / RFU ABCC12 (11746883_a_at) / Fold change /veh ABCC12 (11746883_a_at) / RFU TMEM136 (11760407_x_at) / Fold change /veh TMEM136 (11760407_x_at) / RFU CLDN22 /// WWC2 (11732394_at) / Fold change /veh CLDN22 /// WWC2 (11732394_at) / RFU HLA-DPB1 (11760878_x_at) / Fold change /veh HLA-DPB1 (11760878_x_at) / RFU SPINT1 (11716480_a_at) / Fold change /veh SPINT1 (11716480_a_at) / RFU GAP43 (11754022_s_at) / Fold change /veh GAP43 (11754022_s_at) / RFU A4GNT (11735810_at) / Fold change /veh A4GNT (11735810_at) / RFU PRB3 (11715151_x_at) / Fold change /veh PRB3 (11715151_x_at) / RFU TUBB4B (11761932_at) / Fold change /veh TUBB4B (11761932_at) / RFU CAPN14 (11732068_a_at) / Fold change /veh CAPN14 (11732068_a_at) / RFU TMCC2 (11721928_a_at) / Fold change /veh TMCC2 (11721928_a_at) / RFU IRGQ (11745062_a_at) / Fold change /veh IRGQ (11745062_a_at) / RFU FAM174B (11720279_a_at) / Fold change /veh FAM174B (11720279_a_at) / RFU TMPRSS4 (11748680_a_at) / Fold change /veh TMPRSS4 (11748680_a_at) / RFU FAM212B (11763350_a_at) / Fold change /veh FAM212B (11763350_a_at) / RFU PLEKHG5 (11743358_a_at) / Fold change /veh PLEKHG5 (11743358_a_at) / RFU ZSCAN30 (11745921_a_at) / Fold change /veh ZSCAN30 (11745921_a_at) / RFU CMKLR1 (11741424_a_at) / Fold change /veh CMKLR1 (11741424_a_at) / RFU LOC101060620 /// MAPK8IP1 (11723275_at) / Fold change /veh LOC101060620 /// MAPK8IP1 (11723275_at) / RFU SPTSSB (11747773_x_at) / Fold change /veh SPTSSB (11747773_x_at) / RFU PRSS12 (11739890_at) / Fold change /veh PRSS12 (11739890_at) / RFU BIN1 (11741810_x_at) / Fold change /veh BIN1 (11741810_x_at) / RFU WNT11 (11732464_a_at) / Fold change /veh WNT11 (11732464_a_at) / RFU C10orf10 (11716521_a_at) / Fold change /veh C10orf10 (11716521_a_at) / RFU C5orf56 (11738089_at) / Fold change /veh C5orf56 (11738089_at) / RFU CYB561 (11721691_x_at) / Fold change /veh CYB561 (11721691_x_at) / RFU ANKRD19P (11752326_a_at) / Fold change /veh ANKRD19P (11752326_a_at) / RFU OR2T12 /// OR2T33 /// OR2T8 (11738714_s_at) / Fold change /veh OR2T12 /// OR2T33 /// OR2T8 (11738714_s_at) / RFU VCAN (11748164_a_at) / Fold change /veh VCAN (11748164_a_at) / RFU JSRP1 (11732532_at) / Fold change /veh JSRP1 (11732532_at) / RFU KRTAP10-11 (11738290_x_at) / Fold change /veh KRTAP10-11 (11738290_x_at) / RFU MYO3A (11730013_a_at) / Fold change /veh MYO3A (11730013_a_at) / RFU EBF3 (11725865_a_at) / Fold change /veh EBF3 (11725865_a_at) / RFU CAMK2N1 (11719241_x_at) / Fold change /veh CAMK2N1 (11719241_x_at) / RFU C5orf56 (11738088_a_at) / Fold change /veh C5orf56 (11738088_a_at) / RFU OLFML3 (11715873_a_at) / Fold change /veh OLFML3 (11715873_a_at) / RFU LOC100653217 /// NTM (11731650_a_at) / Fold change /veh LOC100653217 /// NTM (11731650_a_at) / RFU MAPK11 (11762145_a_at) / Fold change /veh MAPK11 (11762145_a_at) / RFU FIZ1 (11724087_x_at) / Fold change /veh FIZ1 (11724087_x_at) / RFU OASL (11726364_x_at) / Fold change /veh OASL (11726364_x_at) / RFU SOX15 (11748057_x_at) / Fold change /veh SOX15 (11748057_x_at) / RFU CD79A (11719716_a_at) / Fold change /veh CD79A (11719716_a_at) / RFU HIST1H1D (11736915_at) / Fold change /veh HIST1H1D (11736915_at) / RFU CASKIN2 (11723855_a_at) / Fold change /veh CASKIN2 (11723855_a_at) / RFU LOC730098 (11760151_x_at) / Fold change /veh LOC730098 (11760151_x_at) / RFU OR4N2 (11742367_at) / Fold change /veh OR4N2 (11742367_at) / RFU PRRT2 (11749266_a_at) / Fold change /veh PRRT2 (11749266_a_at) / RFU SNX32 (11753110_a_at) / Fold change /veh SNX32 (11753110_a_at) / RFU CDHR5 (11726645_a_at) / Fold change /veh CDHR5 (11726645_a_at) / RFU RCAN1 (11760418_a_at) / Fold change /veh RCAN1 (11760418_a_at) / RFU FAM167A (11723789_a_at) / Fold change /veh FAM167A (11723789_a_at) / RFU FAM26E (11764081_at) / Fold change /veh FAM26E (11764081_at) / RFU ISYNA1 (11749810_s_at) / Fold change /veh ISYNA1 (11749810_s_at) / RFU ACY1 (11761880_at) / Fold change /veh ACY1 (11761880_at) / RFU 11764098_at / Fold change /veh 11764098_at / RFU SAMD14 (11745864_x_at) / Fold change /veh SAMD14 (11745864_x_at) / RFU NPB (11741838_a_at) / Fold change /veh NPB (11741838_a_at) / RFU TMPRSS6 (11731388_a_at) / Fold change /veh TMPRSS6 (11731388_a_at) / RFU KRTAP10-2 (11738614_at) / Fold change /veh KRTAP10-2 (11738614_at) / RFU ARHGAP8 /// PRR5-ARHGAP8 (11727945_x_at) / Fold change /veh ARHGAP8 /// PRR5-ARHGAP8 (11727945_x_at) / RFU KRTAP5-7 /// NADSYN1 (11734609_at) / Fold change /veh KRTAP5-7 /// NADSYN1 (11734609_at) / RFU RASL12 (11751679_a_at) / Fold change /veh RASL12 (11751679_a_at) / RFU CDKN2B (11736163_a_at) / Fold change /veh CDKN2B (11736163_a_at) / RFU PRF1 (11729649_at) / Fold change /veh PRF1 (11729649_at) / RFU, ZNF638 /// ZNF638-IT1 / Fold change vs veh, ZNF638 /// ZNF638-IT1 / RFU, PANK3 / Fold change vs veh, PANK3 / RFU, SH3YL1 / Fold change vs veh, SH3YL1 / RFU, ZEB2 / Fold change vs veh, ZEB2 / RFU, NRIP1 / Fold change vs veh, NRIP1 / RFU, PTTG1IP / Fold change vs veh, PTTG1IP / RFU, CAPN2 / Fold change vs veh, CAPN2 / RFU, MED14 / Fold change vs veh, MED14 / RFU, SNORA58 / Fold change vs veh, SNORA58 / RFU, C1orf63 / Fold change vs veh, C1orf63 / RFU, LRRFIP1 / Fold change vs veh, LRRFIP1 / RFU, NDUFAF7 / Fold change vs veh, NDUFAF7 / RFU, SLC12A2 / Fold change vs veh, SLC12A2 / RFU, IBTK / Fold change vs veh, IBTK / RFU, ESF1 / Fold change vs veh, ESF1 / Fold change vs veh, TMEM50B / RFU, TAOK1 / Fold change vs veh, TAOK1 / RFU, ACBD3 / Fold change vs veh, ACBD3 / RFU, TMA16 / Fold change vs veh, TMA16 / RFU, RWDD3 / Fold change vs veh, RWDD3 / RFU, BCAT1 / Fold change vs veh, BCAT1 / RFU, EDEM3 / Fold change vs veh, EDEM3 / RFU, TMEM33 / Fold change vs veh, TMEM33 / RFU, WDR75 / Fold change vs veh, WDR75 / RFU, AHCTF1 / Fold change vs veh, AHCTF1 / RFU, TFRC / Fold change vs veh, TFRC / RFU, ZDHHC17 / Fold change vs veh, ZDHHC17 / RFU, NOM1 / Fold change vs veh, NOM1 / RFU, ARL8B / Fold change vs veh, ARL8B / RFU, ZBTB11 / Fold change vs veh, ZBTB11 / RFU, TAMM41 / Fold change vs veh, TAMM41 / RFU, KIAA1704 /// LOC100996395 / Fold change vs veh, KIAA1704 /// LOC100996395 / RFU, ING1 / Fold change vs veh, ING1 / RFU, TRMT61B / Fold change vs veh, TRMT61B / RFU, FUBP3 / Fold change vs veh, FUBP3 / RFU, TP53 / Fold change vs veh, TP53 / RFU, TNKS2 / Fold change vs veh, TNKS2 / RFU, ZFP14 / Fold change vs veh, ZFP14 / RFU, ACTR2 / Fold change vs veh, ACTR2 / RFU, PPP3R1 / Fold change vs veh, PPP3R1 / RFU, PIK3R1 / Fold change vs veh, PIK3R1 / RFU, HNRNPA1 / Fold change vs veh, HNRNPA1 / RFU, RNF170 / Fold change vs veh, RNF170 / RFU, ZNF28 / Fold change vs veh, ZNF28 / RFU, RNGTT / Fold change vs veh, RNGTT / RFU, OGT / Fold change vs veh, OGT / RFU, BRD1 / Fold change vs veh, BRD1 / RFU, MARS / Fold change vs veh, MARS / RFU, ZNF655 / Fold change vs veh, ZNF655 / RFU, FAHD1 / Fold change vs veh, FAHD1 / RFU, BDP1 / Fold change vs veh, BDP1 / RFU, LRRCC1 / Fold change vs veh, LRRCC1 / RFU, ARID1A / Fold change vs veh, ARID1A / RFU, ZNF146 / Fold change vs veh, ZNF146 / RFU, ZNF330 / Fold change vs veh, ZNF330 / RFU, GPN3 / Fold change vs veh, GPN3 / RFU, C9orf123 / Fold change vs veh, C9orf123 / RFU, N4BP2L2 / Fold change vs veh, N4BP2L2 / RFU, ARFIP1 / Fold change vs veh, ARFIP1 / RFU, FAM179B / Fold change vs veh, FAM179B / RFU, BCL10 / Fold change vs veh, BCL10 / RFU, UHRF1BP1L / Fold change vs veh, UHRF1BP1L / RFU, BET1 / Fold change vs veh, BET1 / RFU, CNOT2 / Fold change vs veh, CNOT2 / RFU, ZNF268 / Fold change vs veh, ZNF268 / Fold change vs veh, ZNF507 / RFU, DGCR2 / Fold change vs veh, DGCR2 / RFU, WDSUB1 / Fold change vs veh, WDSUB1 / Fold change vs veh, HSP90B1 /// MIR3652 / RFU, ADSS / Fold change vs veh, ADSS / RFU, GK / Fold change vs veh, GK / RFU, ZNF148 / Fold change vs veh, ZNF148 / RFU, TAF9 / Fold change vs veh, TAF9 / RFU, SLC1A5 / Fold change vs veh, SLC1A5 / RFU, SLMO2 / Fold change vs veh, SLMO2 / RFU, ABCC4 / Fold change vs veh, ABCC4 / RFU, LOC101060439 /// RAP1B / Fold change vs veh, LOC101060439 /// RAP1B / RFU, RFX7 / Fold change vs veh, RFX7 / RFU, GTPBP10 / Fold change vs veh, GTPBP10 / RFU, CNEP1R1 / Fold change vs veh, CNEP1R1 / RFU, BIVM-ERCC5 /// ERCC5 / Fold change vs veh, BIVM-ERCC5 /// ERCC5 / RFU, ILF3 / Fold change vs veh, ILF3 / RFU 11762660_at / Fold change /veh 11762660_at / RFU VCAN (11757783_s_at) / Fold change /veh VCAN (11757783_s_at) / RFU DDX43 (11728927_at) / Fold change /veh DDX43 (11728927_at) / RFU KRT8 (11758188_x_at) / Fold change /veh KRT8 (11758188_x_at) / RFU NKD1 (11759106_at) / Fold change /veh NKD1 (11759106_at) / RFU SRD5A1 (11742802_a_at) / Fold change /veh SRD5A1 (11742802_a_at) / RFU TPSAB1 /// TPSB2 (11721975_s_at) / Fold change /veh TPSAB1 /// TPSB2 (11721975_s_at) / RFU GSTM3 (11746129_a_at) / Fold change /veh GSTM3 (11746129_a_at) / RFU IL23R (11737362_x_at) / Fold change /veh IL23R (11737362_x_at) / RFU TMEM51 (11727254_a_at) / Fold change /veh TMEM51 (11727254_a_at) / RFU PIWIL2 (11732686_x_at) / Fold change /veh PIWIL2 (11732686_x_at) / RFU ORM1 (11744905_x_at) / Fold change /veh ORM1 (11744905_x_at) / RFU CCDC152 (11743942_at) / Fold change /veh CCDC152 (11743942_at) / RFU ECM1 (11717891_a_at) / Fold change /veh ECM1 (11717891_a_at) / RFU IL23R (11748794_a_at) / Fold change /veh IL23R (11748794_a_at) / RFU TNFAIP8L3 (11732012_x_at) / Fold change /veh TNFAIP8L3 (11732012_x_at) / RFU MBOAT4 (11741988_at) / Fold change /veh MBOAT4 (11741988_at) / RFU 11764193_at / Fold change /veh 11764193_at / RFU TMEM53 (11763286_at) / Fold change /veh TMEM53 (11763286_at) / RFU MAGEB2 (11727129_at) / Fold change /veh MAGEB2 (11727129_at) / RFU TMEM200A (11744735_a_at) / Fold change /veh TMEM200A (11744735_a_at) / RFU CCDC152 (11751479_a_at) / Fold change /veh CCDC152 (11751479_a_at) / RFU FAM211A (11726209_a_at) / Fold change /veh FAM211A (11726209_a_at) / RFU RGS16 (11746705_a_at) / Fold change /veh RGS16 (11746705_a_at) / RFU VCAN (11755009_s_at) / Fold change /veh VCAN (11755009_s_at) / RFU RHOB (11743442_s_at) / Fold change /veh RHOB (11743442_s_at) / RFU RGS16 (11720943_a_at) / Fold change /veh RGS16 (11720943_a_at) / RFU RGS16 (11720944_at) / Fold change /veh RGS16 (11720944_at) / RFU, VPS4B / Fold change vs veh, VPS4B / RFU, CREB1 / Fold change vs veh, CREB1 / RFU, DNAJC13 / Fold change vs veh, DNAJC13 / RFU, GNAQ / Fold change vs veh, GNAQ / RFU, CDK5R1 / Fold change vs veh, CDK5R1 / RFU, ZRANB3 / Fold change vs veh, ZRANB3 / RFU, CUL4A / Fold change vs veh, CUL4A / RFU, CCNY / Fold change vs veh, CCNY / RFU, UFL1 / Fold change vs veh, UFL1 / RFU, COG3 / Fold change vs veh, COG3 / RFU, DIAPH2 / Fold change vs veh, DIAPH2 / RFU, SKA2 / Fold change vs veh, SKA2 / RFU, AFF3 / Fold change vs veh, AFF3 / RFU, LMF1 / Fold change vs veh, LMF1 / RFU, IPO11 / Fold change vs veh, IPO11 / RFU, DFFB / Fold change vs veh, DFFB / RFU, FOXP1 / Fold change vs veh, FOXP1 / RFU, CARD8 / Fold change vs veh, CARD8 / RFU, STRN3 / Fold change vs veh, STRN3 / RFU, ADK / Fold change vs veh, ADK / RFU, RASSF2 / Fold change vs veh, RASSF2 / RFU, WIPF1 / Fold change vs veh, WIPF1 / RFU, LARP1B / Fold change vs veh, LARP1B / RFU, RASA1 / Fold change vs veh, RASA1 / RFU, RB1 / Fold change vs veh, RB1 / RFU, PPFIA1 / Fold change vs veh, PPFIA1 / RFU, MAT2A / Fold change vs veh, MAT2A / RFU, CCT5 / Fold change vs veh, CCT5 / RFU, WDR92 / Fold change vs veh, WDR92 / RFU, CUX1 / Fold change vs veh, CUX1 / RFU, TTC7A / Fold change vs veh, TTC7A / RFU, TMEM135 / Fold change vs veh, TMEM135 / RFU, DEPTOR / Fold change vs veh, DEPTOR / RFU, CPM / Fold change vs veh, CPM / RFU, DNAJB6 / Fold change vs veh, DNAJB6 / RFU, CACNA2D3 / Fold change vs veh, CACNA2D3 / RFU, DTX4 / Fold change vs veh, DTX4 / RFU, TFCP2 / Fold change vs veh, TFCP2 / RFU, GMCL1 /// GMCL1P1 / Fold change vs veh, GMCL1 /// GMCL1P1 / RFU, AEBP2 / Fold change vs veh, AEBP2 / RFU, SNHG1 /// SNORD22 /// SNORD25 /// SNORD26 /// SNORD27 /// SNORD28 /// SNORD29 /// SNORD31 / Fold change vs veh, SNHG1 /// SNORD22 /// SNORD25 /// SNORD26 /// SNORD27 /// SNORD28 /// SNORD29 /// SNORD31 / Fold change (Aza/veh), C12orf56 (ProbeSet 11735607_a_at) / Fold change (ACY-1035/veh), C12orf56 (ProbeSet 11735607_a_at) / Fold change (Aza/veh), FGFR1OP (ProbeSet 11751329_s_at) / Fold change (ACY-1035/veh), FGFR1OP (ProbeSet 11751329_s_at) / Fold change (Aza/veh), VPS36 (ProbeSet 11739960_a_at) / Fold change (ACY-1035/veh), VPS36 (ProbeSet 11739960_a_at) / RFU SYPL1 (11715823_x_at) / Fold change /veh SYPL1 (11715823_x_at) / RFU IGFBP7 (11715501_s_at) / Fold change /veh IGFBP7 (11715501_s_at) / RFU REEP3 (11722064_at) / Fold change /veh REEP3 (11722064_at) / RFU IGLL1 (11728026_x_at) / Fold change /veh IGLL1 (11728026_x_at): dose or concentration left out as unconfirmed
Settings: ProbeSet 11747889_x_at; LIST B

Nc1ncn([C@@H]2O[C@H](CO)[C@@H](O)[C@H]2O)c(=O)n1 [azacitidine]
Fold change vs veh, SH3YL1: 0.87
